What is called IC50 is the concentration that gives 50% inhibition.

The experiment concerns ATF4 pathway. In words: ATF4 Cell Based Assay (SH-SY5Y-ATF4-NanoLuc reporter, Thapsigargin challenge). To be noted: SH-SY5Y-ATF4-NanoLuc cells, Thapsigargin 14-18 hours; average of a set of two or more experimental runs; read-out: average ATF4 pathway inhibitory activity (IC50). From the text:
The ATF4 reporter assay measures the effect of Thapsigargin induced cellular stress on ATF4 expression. For this reporter assay, a stable cell line was created by transfecting SH-SY5Y cells with a plasmid containing the NanoLuc® luciferase gene fused to the 5′-UTR of ATF4, under the control of the CMV promoter. The ATF4 5′-UTR contains two open reading frames which mediate the cellular stress-dependent translation of the reporter gene. Clones stably expressing the reporter construct were isolated and selected based on the luminescence response to thapsigargin and inhibition of this signal by test compounds. Briefly, SH-SY5Y-ATF4-NanoLuc cells were challenged with Thapsigargin for 14-18 hours to determine the stress effect with or without test compounds.
Cells were propagated in growth media consisting of 90% DMEM F12 (InVitrogen #11320-033), 10% Fetal Bovine Serum (Gibco #10438-026), 5mM Glutamax (Gibco #35050-061), 5 mM Hepes, (Gibco #15630-080), and 0.5 mg/ml Geneticin (Gibco #10131-027). Cells were prepared for the assay by removing all media from cells, washing the plated cells with phosphate buffered saline, and detached by adding a solution comprised of 10% Tryple express solution (InVitrogen12604-021) and 90% enzyme-free cell dissociation buffer HANKS base (Gibco 13150-016). The trypsin was deactivated by adding assay media comprised of 90% phenol-red free DMEM F12 (InVitrogen, 11039), 10% Fetal Bovine Serum (Gibco #10438-026),(5 mM Glutamax (Gibco #35050-061), 5 mM Hepes, (Gibco #15630-080), and 0.5 mg/ml Geneticin (Gibco #10131-027). Suspended cells were spun down at 300 g for 5 min, the supernatant was removed and the cell pellet was suspended in warm media (30-37° C.) comprised as above but without 10% Fetal Bovine Serum to a concentration of 1 e6 cells/ml.
Assay plates were prepared by adding 250 nL of compound stock solution in 100% DMSO to each well, followed by dispensing 20 microliters/well cell suspension to deliver 15-20 k cell/well. Cells were incubated for 1 hour at 37° C. Then, 5 μL of 1.5 μM or 1 μM of Thapsigargin (final concentration: 200-300 nM) was added to each well of cells. Assay plates containing cells were incubated for 14-18 hours at 37° C.
The measurement of luciferase produced by the ATF4 constructs was measured as follows. Aliquots of the Nano-Glo reagent (Nano-Glo® Luciferase Assay Substrate, Promega, N113, Nano-Glo® Luciferase Assay Buffer, Promega, N112 (parts of Nano-Glo® Luciferase Assay System, N1150) were brought to room temperature, the substrate and buffer were mixed according to manufacturer's instructions. The cell plates were equilibrated to room temperature. 25 microliters/well of the mixed Nano-Glo reagent were dispensed into assay wells and pulse spun to settle contents and the plate was sealed with film. The plates were incubated at room temperature for 1 hour before detecting luminescence on an EnVision® plate reader.
`O=C(COc1ccc(Cl)cc1)NC12CC(N3CCN(c4ccc(C(F)(F)F)cc4)C3=O)(C1)C2` [Example 1r, 2-(4-chlorophenoxy)-N-(3-(2-oxo-3-(4-(trifluoromethyl)phenyl)imidazolidin-1-yl)bicyclo[1.1.1]pentan-1-yl)acetamide]: the IC50 stood at 1.8 nM.

`O=C(COc1ccc(Cl)cc1)NC12CC(NC(=O)COc3ccc4c(c3)CCCO4)(C1)C2` [Example 4d, 2-(4-chlorophenoxy)-N-(3-(2-(chroman-6-yloxy)acetamido)bicyclo[1.1.1]pentan-1-yl)acetamide]: the 50% inhibitory concentration (IC50) worked out at 12.2 nM.

Turning to `COc1ccc(N2CCN(C34CC(NC(=O)COc5ccc(Cl)cc5)(C3)C4)C2=O)cc1` [Example 1t, 2-(4-chlorophenoxy)-N-(3-(3-(4-methoxyphenyl)-2-oxoimidazolidin-1-yl)bicyclo[1.1.1]pentan-1-yl)acetamide], the IC50 is 51.7 nM.

Consider `O=C(COc1cccc(Cl)c1)NC12CC(N3CCN(c4ccc(Cl)cc4)C3=O)(C1)C2` [Example 1g, 2-(3-chlorophenoxy)-N-(3-(3-(4-chlorophenyl)-2-oxoimidazolidin-1-yl)bicyclo[1.1.1]pentan-1-yl)acetamide], for which the IC50 was 17 nM.

`O=C(COc1ccc(C(F)(F)F)cc1)NC12CC(N3CCC(Oc4ccc(Cl)cc4)C3)(C1)C2` (centres unmarked) [Example 6i, N-(3-(3-(4-chlorophenoxy)pyrrolidin-1-yl)bicyclo[1.1.1]pentan-1-yl)-2-(4-(trifluoromethyl)phenoxy)acetamide]: the half-maximal inhibitory concentration (IC50) amounted to 6.9 nM.

Turning to `COC(=O)CN(CCOc1ccc(Cl)cc1)C12CC(NC(=O)COc3ccc(Cl)cc3)(C1)C2` [Example XVI, methyl N-(3-(2-(4-chlorophenoxy)acetamido)bicyclo[1.1.1]pentan-1-yl)-N-(2-(4-chlorophenoxy)ethyl)glycinate], the concentration for half-maximal inhibition (IC50) is 13 nM.

Take `O=C(COc1ccc(Cl)cc1)NC12CC(N3CCN(c4ccc(Cl)cc4F)C3=O)(C1)C2` [Example 1v, N-(3-(3-(4-chloro-2-fluorophenyl)-2-oxoimidazolidin-1-yl)bicyclo[1.1.1]pentan-1-yl)-2-(4-chlorophenoxy)acetamide]: the IC50 was found to be 23.2 nM.

With `O=C(COc1ccc(Cl)cc1)NC12CCC(NC(=O)COc3ccc(Cl)nc3)(CC1)CC2` [Example III, 2-(4-chlorophenoxy)-N-(4-(2-((6-chloropyridin-3-yl)oxy)acetamido)bicyclo[2.2.2]octan-1-yl)acetamide], the IC50 came out at 8.89 nM.

For the molecule `O=C(COc1ccc(Cl)cc1)NC12CC(NC3CN(c4ccc(Cl)cc4)C3)(C1)C2` [Example 3a, 2-(4-chlorophenoxy)-N-(3-((1-(4-chlorophenyl)azetidin-3-yl)amino)bicyclo[1.1.1]pentan-1-yl)acetamide], the IC50 fell in the range of 3.6 to 13.6 nM.

On to `O=C(COc1ccc(Cl)cc1)NC12CC(N3CC(Oc4ccc(Cl)cc4)C3)(C1)C2` [Example 3b, 2-(4-chlorophenoxy)-N-(3-(3-(4-chlorophenoxy)azetidin-1-yl)bicyclo[1.1.1]pentan-1-yl)acetamide], for which the concentration for half-maximal inhibition (IC50) was in the range of 3.6 to 13.6 nM.

On to `O=C(COc1ccc(Cl)cc1)NC12CC(NC(=O)Cc3ccc(Cl)cc3)(C1)C2` [Example VI, 2-(4-chlorophenoxy)-N-(3-(2-(4-chlorophenyl)acetamido)bicyclo[1.1.1]pentan-1-yl)acetamide], for which the half-inhibitory concentration (IC50) was 4.1 nM.

For the molecule `O=C(COc1ccc(Cl)c(F)c1)NC12CC(N3CCN(c4ccc(Cl)cc4)C3=O)(C1)C2` [Example 1m, 2-(4-chloro-3-fluorophenoxy)-N-(3-(3-(4-chlorophenyl)-2-oxoimidazolidin-1-yl)bicyclo[1.1.1]pentan-1-yl)acetamide], the IC50 was determined as 0.6 nM.

In the case of `O=C(COc1ccc(F)c(Cl)c1)NC12CC(N3CCN(c4ccc(Cl)cc4)C3=O)(C1)C2` [Example 1o, 2-(3-chloro-4-fluorophenoxy)-N-(3-(3-(4-chlorophenyl)-2-oxoimidazolidin-1-yl)bicyclo[1.1.1]pentan-1-yl)acetamide], the 50% inhibitory concentration (IC50) came out at 10.3 nM.

With `O=C(COc1ccc(Cl)cc1)NC12CC(N3CCC(Oc4ccc(Cl)c(F)c4)C3)(C1)C2` (single isomer, unassigned) [Example 6v, N-(3-(3-(4-chloro-3-fluorophenoxy)pyrrolidin-1-yl)bicyclo[1.1.1]pentan-1-yl)-2-(4-chlorophenoxy)acetamide], the half-inhibitory concentration (IC50) came out at 9.9 nM.

For `O=C(COc1ccc(Cl)c(F)c1)NC12CC(N3CCC(Oc4ccc(Cl)cc4)C3)(C1)C2` (centres unmarked) [Example 6q, 2-(4-chloro-3-fluorophenoxy)-N-(3-(3-(4-chlorophenoxy)pyrrolidin-1-yl)bicyclo[1.1.1]pentan-1-yl)acetamide], the IC50 came out at 1.1 nM.

In the case of `O=C(COc1ccc(Cl)cc1)NC12CC(N3CCC(Oc4ccc(Cl)cc4)C3)(C1)C2` (stereo in doubt) [Example 6c, (R)-2-(4-chlorophenoxy)-N-(3-(3-(4-chlorophenoxy)pyrrolidin-1-yl)bicyclo[1.1.1]pentan-1-yl)acetamide], the IC50 was 6.7 nM.

`O=C(COc1ccc(Cl)cn1)NC12CC(N3CCN(c4ccc(Cl)cc4)C3=O)(C1)C2` [Example 1k, N-(3-(3-(4-chlorophenyl)-2-oxoimidazolidin-1-yl)bicyclo[1.1.1]pentan-1-yl)-2-((5-chloropyridin-2-yl)oxy)acetamide]: the 50% inhibitory concentration (IC50) amounted to 34 nM.

As to `O=C(COc1ccc(Cl)cc1)NC12CC(NC(=O)c3ccc(Cl)cc3)(C1)C2` [Example XII, 4-chloro-N-(3-(2-(4-chlorophenoxy)acetamido)bicyclo[1.1.1]pentan-1-yl)benzamide], the IC50 is 25.2 nM.

Consider `O=C(COc1ccc(Cl)c(C(F)(F)F)c1)NC12CC(N3CCN(c4ccc(Cl)cc4)C3=O)(C1)C2` [Example 1l, 2-(4-chloro-3-(trifluoromethyl)phenoxy)-N-(3-(3-(4-chlorophenyl)-2-oxoimidazolidin-1-yl)bicyclo[1.1.1]pentan-1-yl)acetamide], for which the IC50 turned out to be 1.6 nM.

Take `O=C(COc1ccc(Cl)c(F)c1)NC12CC(N3CCC(Oc4ccc(Cl)cc4)C3)(C1)C2` (single isomer, unassigned) [Example 6o, 2-(4-chloro-3-fluorophenoxy)-N-(3-(3-(4-chlorophenoxy)pyrrolidin-1-yl)bicyclo[1.1.1]pentan-1-yl)acetamide]: the concentration for half-maximal inhibition (IC50) stood at 5.7 nM.

With `Cc1ccc(OCC(=O)NC23CC(NC(=O)COc4ccc(Cl)cc4)(C2)C3)cn1` [Example IX, 2-(4-chlorophenoxy)-N-(3-(2-((6-methylpyridin-3-yl)oxy)acetamido)bicyclo[1.1.1]pentan-1-yl)acetamide], the IC50 was found to be 300 nM.

With `O=C(COc1ccc(Cl)c(C(F)(F)F)c1)NC12CC(N3CCC(Oc4ccc(Cl)cc4)C3)(C1)C2` (centres unmarked) [Example 6k, 2-(4-chloro-3-(trifluoromethyl)phenoxy)-N-(3-(3-(4-chlorophenoxy)pyrrolidin-1-yl)bicyclo[1.1.1]pentan-1-yl)acetamide], the half-maximal inhibitory concentration (IC50) was found to be 24.6 nM.

On to `O=C(COc1ccc(Cl)cc1)NC12CC(NCCNc3ccc(Cl)cc3)(C1)C2` [Example XXI, 2-(4-chlorophenoxy)-N-(3-((2-((4-chlorophenyl)amino)ethyl)amino)bicyclo[1.1.1]pentan-1-yl)acetamide], for which the IC50 is 33 nM.

Take `O=C(COc1ccc(Cl)cc1)NC12CC(N3CCC(Oc4ccc(Cl)cc4)CC3)(C1)C2` [Example 8a, 2-(4-chlorophenoxy)-N-(3-(4-(4-chlorophenoxy)piperidin-1-yl)bicyclo[1.1.1]pentan-1-yl)acetamide]: the IC50 stood at 5.1 nM.

As to `O=C(COc1ccc(Cl)cc1)NC12CC(N3CCC(Oc4ccc(Cl)cc4)C3)(C1)C2` (centres unmarked) [XXIV and 6a], the IC50 turned out to be 7.3 nM.

As for `O=C(COc1ccc(F)cc1)NC12CC(N3CCC(Oc4ccc(Cl)cc4)C3)(C1)C2` (single isomer, unassigned) [Example 6e, N-(3-(3-(4-chlorophenoxy)pyrrolidin-1-yl)bicyclo[1.1.1]pentan-1-yl)-2-(4-fluorophenoxy)acetamide], the IC50 came to 20 nM.

For the origin of these results see US20210093619A1, “Chemical Compounds as ATF-4 Pathway Inhibitors” (GlaxoSmithKline Intellectual Property Development Limited, priority 2017, published 2021).
